# According to US9034403B2, “Yeast extract containing γ-Glu-X or γ-Glu-X-Gly and a method for producing the same” (AJINOMOTO CO., INC., priority 2010, dated 2015):
# Peptide text beside a SMILES is read from it.
# Key:
# [1] = tested on: S288C, S288C PADH1-HGT1, S288C PADH1-PTR2; test: γ-Glu-Val-Gly producing ability from Val-Gly of Hgt1p or Ptr2p overproducing strains; type: cell-based, Saccharomyces cerevisiae; conditions: 100 ppm Val-Gly in SD medium, 20 hours
# Experimental: S288C PADH1-HGT1, Hgt1p overproducing strain obtained in Example 12, S288C PADH1-PTR2, Ptr2p overproducing strain obtained in Example 12, and their parental strain S288C were evaluated for their γ-Glu-Val-Gly producing abilities from Val-Gly. Each strain was cultivated in 50-ml tubes containing 10 ml of SD medium with 100 ppm Val-Gly as a final concentration. Tubes were inoculated by overnight culture of corresponding strain at initial OD600=0.01, and placed in rotation shaker at 240 rpm, 30° C. Cultivation time was for 20 hours. Then, cells from 2 ml of broth culture were harvested by centrifugation, and washed with 1 ml of milliQ water three times. Then, washed cells were suspended in 1 ml of milliQ and incubated at 70° C. for 10 min with a water bath to extract intracellular materials. After cell debris and the extract were separated by centrifugation, the aqueous phase was transferred to a clean vial and then the vial was vacuum-dried. Thus, the dried extract was prepared. Then γ-Glu-Val-Gly in the dried extract was measured with LC-MS/MS analysis as described in Example 12.
# [2] = tested on: Saccharomyces cerevisiae S288C strain; test: Addition of Val-Gly to the S288C strain in SDP medium, γ-Glu-Val-Gly in dry cells; type: cell-based; conditions: Val-Gly 100 ppm added to SDP medium in advance, culture 24 hours
# Experimental: One loop of the S288C strain was inoculated into SDP medium (ammonium sulfate used for the preparation of the SD medium was replaced with proline, final concentration of proline was 0.1 g/L, 50 ml in a 500 ml-volume Sakaguchi flask), and cultured at 30° C. for 24 hours with shaking at a velocity of 120 rpm. Absorbance of the resulting culture broth was measured, the culture broth was inoculated into SDP medium (400 ml in a 2 L-volume conical flask with baffle fins, two or more flasks) so that OD660 was 0.01 at the start of the culture, and culture was performed at 30° C. for 24 hours with shaking by rotation at a velocity of 120 rpm. To the SDP medium, Val-Gly (purchased from Bachem) was added in advance to a final concentration of 100 ppm. Using the culture broth, the amount of γ-Glu-Val-Gly in dry cells was calculated in the same manner as that of Example 2.
smiles,measurement,setting,value
CC(C)[C@H](N)C(=O)NCC(=O)O [Val-Gly] (H-Val-Gly-OH),γ-Glu-Val-Gly in the dried extract,[1]; strain S288C PADH1-HGT1,0.03 μg 1^−1 OD600^−1
same,γ-Glu-Val-Gly in the dried extract,[1]; strain S288C PADH1-PTR2,8.89 μg 1^−1 OD600^−1
same,γ-Glu-Val-Gly in the dried extract,[1]; strain S288C,0.04 μg 1^−1 OD600^−1
same,γ-Glu-Val-Gly in dry cells,[2],2 ppm
